Experimental data as given in PubChem BioAssay AID1963983 (Molecular Pharmacology Branch, DTP, NCI, 2024).
Where “and” joins values, the source holds several entries; their conditions need not be identical. Equal values may be shown once.

Tested on: 186277-243-T-J2-PDC multi-cell spheroid viability
Assay: Anticancer human tumor 186277-243-T-J2-PDC patient-derived colon adenocarcinoma cell line growth inhibition [PI3K]
Details: for viability, T/C: stronger effect = lower value
Excerpt: Combinatorial screen of targeted agents with the PI3K inhibitors inavolisib, alpelisib, duvelisib, and copanlisib in multi-cell type tumor spheroids
A high-throughput screen of multi-cell type tumor spheroids was designed to identify active combinations of targeted small molecules and PI3K pathway inhibitors. Complex spheroids include a stromal component modeled by human endothelial cells (HUVEC) and fibroblasts modeled by human mesenchymal stem cells (MSCs). The concentration ranges selected for each drug and investigational agent were based upon clinically achievable concentrations if the clinical Cmax of the agent was known.
Compounds. The drugs and investigational agents: inavolisib (NSC800729), alpelisib (NSC765974), duvelisib (NSC772469), copanlisib (NSC816437), ipatasertib (NSC767898), afuresertib (NSC778305), talazoparib (NSC767125), sapanisertib (NSC764658), selumetinib (NSC741078), tovorafenib (DAY101, NSC766906), vemurafenib (NSC761431), ravoxertinib (NSC781343), sotorasib (NSC818433), MRTX1133 (NSC 836407), abemaciclib (NSC 768073), palbociclib (NSC758247), venetoclax (NSC 766270), SY5609 (NSC837396), enzalutamide (NSC755605), and darolutamide (NSC825331), were obtained from the National Cancer Institute (NCI) Developmental Therapeutics Program Chemical Repository. The FDA-approved anticancer drug set is available from the NCI Developmental Therapeutics Program. […] The stock solutions were prepared in dimethyl sulfoxide (DMSO, Sigma-Aldrich, St. Louis, MO, cat. D2650) at 800-fold the tested concentration and stored at -70 degrees C prior to their use. All drugs and investigational agents were tested over a range starting from a high concentration at or near the clinical Cmax and decreasing in half-log increments. If the clinical Cmax for an agent had not been determined, the highest concentration tested was 10 microM.
Cell Culture. All cells were maintained in an incubator at 37 degrees C and 5% CO2 with 95% humidity. The PDC lines were cultured according to standard operating procedures established by the NCI PDMR (https://pdmr.cancer.gov/sops/default.htm). All PDCs were thawed and cultured in Matrigel-coated flasks prepared with a working solution of 1X Ham's F-12 nutrient mix, without supplementation (Invitrogen, Waltham, MA, cat. 11765054), 100 U/mL penicillin-streptomycin (Invitrogen, cat. 15140122), and 2.5% Matrigel (Corning Inc., Corning, NY, cat. 354248) for the first three passages. The 354836-022-R-J1-PDC, 475296-252-R-J1-PDC, and 997726-040-R-J2-PDC lines were cultured in 6A media, which includes advanced DMEM/F-12 (Thermo Fisher Scientific, cat. 12634028), 10 mM HEPES (Thermo Fisher Scientific, cat. 15630080), 1X GlutaMAX supplement (Thermo Fisher Scientific, cat. 35050061), 0.1 mg/mL primocin (InvivoGen, San Diego, CA, cat. ant-pm-2), 10% defined fetal bovine serum, heat inactivated (HyClone Laboratories Inc., Logan, UT, cat. SH30070.03HI), 50% L-WRN conditioned media (ATCC, cat. CRL-3276), 1.25 mM N-Acetyl-L-cysteine (Sigma-Aldrich, cat. A9165), 10 mM nicotinamide (Sigma-Aldrich, cat. N0636), 1X B-27 supplement (Thermo Fisher Scientific, cat. 17504044), 1X N-2 supplement (Thermo Fisher Scientific, cat. 17502048), and 10 microM Y-27632 dihydrochloride (Tocris Bioscience, Bristol, United Kingdom, cat. 1254). The 624824-186-R-J2-PDC line was cultured in 6C/Colon 1B media, which includes all 6A media components plus 50 ng/mL human EGF recombinant protein (Thermo Fisher Scientific, cat. PHG0311). […]

[1] = curve of first compound, second compound 0.0316 µM
[2] = curve of first compound, second compound 0.1 µM
[3] = curve of first compound, second compound 0.316 µM
[4] = curve of first compound, second compound 1 µM
[5] = curve of first compound, second compound 3.16 µM
[6] = curve of first compound, second compound 10 µM
[7] = second compound 0.0316 µM, first compound 0.0316 µM
[8] = second compound 0.0316 µM, first compound 0.1 µM
[9] = second compound 0.1 µM, first compound 0.0316 µM
[10] = second compound 0.1 µM, first compound 0.1 µM
[11] = second compound 0.316 µM, first compound 0.0316 µM
[12] = second compound 0.316 µM, first compound 0.1 µM
[13] = second compound 1 µM, first compound 0.0316 µM
[14] = second compound 1 µM, first compound 0.1 µM
[15] = second compound 3.16 µM, first compound 0.0316 µM
[16] = second compound 3.16 µM, first compound 0.1 µM
[17] = second compound 10 µM, first compound 0.0316 µM
[18] = second compound 10 µM, first compound 0.1 µM
[19] = second compound 0.0316 µM, first compound 0.316 µM
[20] = second compound 0.0316 µM, first compound 1 µM
[21] = second compound 0.0316 µM, first compound 3.16 µM
[22] = second compound 0.0316 µM, first compound 10 µM
[23] = second compound 0.1 µM, first compound 0.316 µM
[24] = second compound 0.1 µM, first compound 1 µM
[25] = second compound 0.1 µM, first compound 3.16 µM
[26] = second compound 0.1 µM, first compound 10 µM
[27] = second compound 0.316 µM, first compound 0.316 µM
[28] = second compound 0.316 µM, first compound 1 µM
[29] = second compound 0.316 µM, first compound 3.16 µM
[30] = second compound 0.316 µM, first compound 10 µM
[31] = second compound 1 µM, first compound 0.316 µM
[32] = second compound 1 µM, first compound 1 µM
[33] = second compound 1 µM, first compound 3.16 µM
[34] = second compound 1 µM, first compound 10 µM
[35] = second compound 3.16 µM, first compound 0.316 µM
[36] = second compound 3.16 µM, first compound 1 µM
[37] = second compound 3.16 µM, first compound 3.16 µM
[38] = second compound 3.16 µM, first compound 10 µM
[39] = second compound 10 µM, first compound 0.316 µM
[40] = second compound 10 µM, first compound 1 µM
[41] = second compound 10 µM, first compound 3.16 µM
[42] = second compound 10 µM, first compound 10 µM
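Further: spheroids exposed to compounds for seven days before viability reading.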
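Wherever viability, T/C is given: 100% = DMSO vehicle control viability.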

Cn1ncnc1[C@H]1c2n[nH]c(=O)c3cc(F)cc(c23)N[C@@H]1c1ccc(F)cc1 + Cc1nc(NC(=O)N2CCCC2C(N)=O)sc1-c1ccnc(C(C)(C)C(F)(F)F)c1
IC50 [1]: > 0.1 µM
IC50 [2]: > 0.1 µM
IC50 [3]: > 0.1 µM
IC50 [4]: > 0.1 µM
IC50 [5]: 0.00254 µM
IC50 [6]: < 0.000316 µM
viability, T/C (second compound 0.0316 µM, first compound 0.000316 µM): 86.8%
viability, T/C (second compound 0.0316 µM, first compound 0.001 µM): 82.2%
viability, T/C (second compound 0.0316 µM, first compound 0.00316 µM): 94.5%
viability, T/C (second compound 0.0316 µM, first compound 0.01 µM): 96.9%
viability, T/C [7]: 112%
viability, T/C [8]: 92.7%
viability, T/C (second compound 0.1 µM, first compound 0.000316 µM): 114%
viability, T/C (second compound 0.1 µM, first compound 0.001 µM): 99.6%
viability, T/C (second compound 0.1 µM, first compound 0.00316 µM): 97.1%
viability, T/C (second compound 0.1 µM, first compound 0.01 µM): 117%
viability, T/C [9]: 116%
viability, T/C [10]: 108%
viability, T/C (second compound 0.316 µM, first compound 0.000316 µM): 114%
viability, T/C (second compound 0.316 µM, first compound 0.001 µM): 113%
viability, T/C (second compound 0.316 µM, first compound 0.00316 µM): 112%
viability, T/C (second compound 0.316 µM, first compound 0.01 µM): 107%
viability, T/C [11]: 104%
viability, T/C [12]: 90.4%
viability, T/C (second compound 1 µM, first compound 0.000316 µM): 101%
viability, T/C (second compound 1 µM, first compound 0.001 µM): 94.9%
viability, T/C (second compound 1 µM, first compound 0.00316 µM): 99.9%
viability, T/C (second compound 1 µM, first compound 0.01 µM): 91.6%
viability, T/C [13]: 85.5%
viability, T/C [14]: 65.9%
viability, T/C (second compound 3.16 µM, first compound 0.000316 µM): 64.3%
viability, T/C (second compound 3.16 µM, first compound 0.001 µM): 52.7%
viability, T/C (second compound 3.16 µM, first compound 0.00316 µM): 45.9%
viability, T/C (second compound 3.16 µM, first compound 0.01 µM): 46.9%
viability, T/C [15]: 43.9%
viability, T/C [16]: 33.6%
viability, T/C (second compound 10 µM, first compound 0.000316 µM): 13.6%
viability, T/C (second compound 10 µM, first compound 0.001 µM): 12%
viability, T/C (second compound 10 µM, first compound 0.00316 µM): 14.8%
viability, T/C (second compound 10 µM, first compound 0.01 µM): 17.4%
viability, T/C [17]: 11.3%
viability, T/C [18]: 8.17%

CNC(=O)c1ccc(N2C(=S)N(c3ccc(C#N)c(C(F)(F)F)c3)C(=O)C2(C)C)cc1F
viability, T/C (compound 0.0316 µM): 100% [middle of 4 runs]
viability, T/C (compound 0.1 µM): 93.1% [middle of 4 runs]
viability, T/C (compound 0.316 µM): 100% [middle of 4 runs]
viability, T/C (compound 1 µM): 93% [middle of 4 runs]
viability, T/C (compound 3.16 µM): 101% and 104% (2×) and 94.4%
viability, T/C (compound 10 µM): 104% [middle of 4 runs]
IC50 (curve of compound): > 10 µM

CC(Cn1ccc(-c2ccc(C#N)c(Cl)c2)n1)NC(=O)c1cc(C(C)O)[nH]n1 (stereo not drawn) + Cc1nc(NC(=O)N2CCCC2C(N)=O)sc1-c1ccnc(C(C)(C)C(F)(F)F)c1
IC50 [1]: > 10 µM
IC50 [2]: > 10 µM
IC50 [3]: > 10 µM
IC50 [4]: > 10 µM
IC50 [5]: > 10 µM
IC50 [6]: < 0.0316 µM
viability, T/C [7]: 99.2%
viability, T/C [8]: 96.7%
viability, T/C [19]: 98.5%
viability, T/C [20]: 93%
viability, T/C [21]: 116%
viability, T/C [22]: 107%
viability, T/C [9]: 112%
viability, T/C [10]: 103%
viability, T/C [23]: 88.6%
viability, T/C [24]: 109%
viability, T/C [25]: 107%
viability, T/C [26]: 122%
viability, T/C [11]: 99.7%
viability, T/C [12]: 97.6%
viability, T/C [27]: 103%
viability, T/C [28]: 116%
viability, T/C [29]: 105%
viability, T/C [30]: 97.5%
viability, T/C [13]: 103%
viability, T/C [14]: 92.8%
viability, T/C [31]: 86%
viability, T/C [32]: 97.9%
viability, T/C [33]: 86.8%
viability, T/C [34]: 88.3%
viability, T/C [15]: 56.5%
viability, T/C [16]: 60.2%
viability, T/C [35]: 54.2%
viability, T/C [36]: 58.9%
viability, T/C [37]: 50.7%
viability, T/C [38]: 54.8%
viability, T/C [17]: 21.6%
viability, T/C [18]: 14.2%
viability, T/C [39]: 18.5%
viability, T/C [40]: 17.1%
viability, T/C [41]: 15.8%
viability, T/C [42]: 12.7%

C[C@@H](NC(=O)c1ncnc(N)c1Cl)c1ncc(C(=O)Nc2cc(C(F)(F)F)c(Cl)cn2)s1 + CC(Nc1ncnc2nc[nH]c12)c1cc2cccc(Cl)c2c(=O)n1-c1ccccc1
IC50 [1]: > 10 µM
IC50 [2]: > 10 µM
IC50 [3]: > 10 µM
IC50 [4]: > 10 µM
IC50 [5]: > 10 µM
IC50 [6]: 6.16 µM
viability, T/C [7]: 92.6%
viability, T/C [8]: 89.9%
viability, T/C [19]: 93.7%
viability, T/C [20]: 83.4%
viability, T/C [21]: 105%
viability, T/C [22]: 79.1%
viability, T/C [9]: 84.3%
viability, T/C [10]: 87.2%
viability, T/C [23]: 90.1%
viability, T/C [24]: 105%
viability, T/C [25]: 108%
viability, T/C [26]: 88%
viability, T/C [11]: 94.5%
viability, T/C [12]: 107%
viability, T/C [27]: 94.3%
viability, T/C [28]: 95%
viability, T/C [29]: 105%
viability, T/C [30]: 80.5%
viability, T/C [13]: 88.1%
viability, T/C [14]: 105%
viability, T/C [31]: 96.7%
viability, T/C [32]: 91%
viability, T/C [33]: 102%
viability, T/C [34]: 61.9%
viability, T/C [15]: 107%
viability, T/C [16]: 97.2%
viability, T/C [35]: 104%
viability, T/C [36]: 99.3%
viability, T/C [37]: 93.3%
viability, T/C [38]: 66.4%
viability, T/C [17]: 84.8%
viability, T/C [18]: 91.7%
viability, T/C [39]: 107%
viability, T/C [40]: 95.5%
viability, T/C [41]: 72.8%
viability, T/C [42]: 33.5%
